Results as given in patent US8952059B2, “Acetyl L-carnitine for the preparation of a medicament for the prevention of painful peripheral neuropathy in patients with type 2 diabetes” (Sigma-Tau Industrie Farmaceutiche Riunite S.P.A., priority 2005, dated 2015).
Like-named read-outs stand apart in the source and are kept apart here.

What was measured:
[1] = test system: patients with type 2 diabetes (symptoms of painful peripheral neuropathy); assay: Clinical Trial BM 14330: multicentre, randomised, double-blind, placebo-controlled, same characteristics as Example 1; assay type: in vivo, human; conditions: for Patients with symptom: Pain / Patients with symptom: Pain, hyperaesthesia, paraesthesia: 3.0 g/day; for Patients with symptom: Pain: n = 181 type 2 diabetes patients without the symptom at basal; for Patients with symptom: Pain, hyperaesthesia, paraesthesia: n = 181 type 2 diabetes patients without the symptoms at basal
Procedure: (§1) A multicentre, randomised, double-blind, placebo-controlled clinical trial of 52 weeks' duration was conducted in patients with type 2 diabetes suffering from diabetic peripheral neuropathy.
(§2) The patients were treated with acetyl L-carnitine at a dose of 0.5 grams or 1 gram, three times daily, or with placebo for 52 weeks.
(§3) The patients recruited into the trial were patients of male and female sex and were aged from 18 to 70 years, in whom diabetes had been diagnosed more than one year earlier and presenting HbA1c greater than 5.9%.
(§4) After 12, 26 and 52 weeks of treatment, the presence and intensity of pain, paraesthesia and hyperaesthesia, amongst other variables, were assessed as characteristic symptoms of painful peripheral neuropathy in patients who at the time of recruitment presented no such symptoms.
A multicentre randomised, double-blind, placebo-controlled clinical trial was conducted with the same characteristics as the clinical trial described in Example 1.

[2] = test system: patients with type 2 diabetes (symptoms of painful peripheral neuropathy); assay: Clinical Trial BM 14329: multicentre, randomised, double-blind, placebo-controlled, 52 weeks; assay type: in vivo, human; conditions: for Patients with symptom: Pain / Patients with symptom: Pain, hyperaesthesia, paraesthesia: 3.0 g/day; for Patients with symptom: Pain: n = 217 type 2 diabetes patients without the symptom at basal; for Patients with symptom: Pain, hyperaesthesia, paraesthesia: n = 217 type 2 diabetes patients without the symptoms at basal
Procedure: as §1, §2, §3, §4

[3] = test system: diabetic patients suffering from neuropathy; conditions: cited from earlier work

SMILES: CC(=O)O[C@H](CC(=O)[O-])C[N+](C)(C)C [Acetyl L-carnitine, acetyl L-carnitine]
- Patients with symptom: Pain ([1]; 12 weeks): 27.6%
- Patients with symptom: Pain, hyperaesthesia, paraesthesia ([1]; 12 weeks): 42.5%
- Patients with symptom: Pain ([1]; 52 weeks): 35.9%
- Patients with symptom: Pain, hyperaesthesia, paraesthesia ([1]; 52 weeks): 48.1%
- Patients with symptom: Pain ([1]; Table 5, head prints 12 weeks): 28.7%
- Patients with symptom: Pain, hyperaesthesia, paraesthesia ([1]; Table 5, head prints 12 weeks): 43.1%
- Ability to prevent the onset of symptoms associated with diabetic painful peripheral neuropathy ([1]; summary of Tables 4-6, 3 grams/day): statistically significant ability to prevent the onset of symptoms
- Patients with symptom: Pain ([2]; 12 weeks): 17.1%
- Patients with symptom: Pain, hyperaesthesia, paraesthesia ([2]; 12 weeks): 35.5%
- Patients with symptom: Pain ([2]; 26 weeks): 20.3%
- Patients with symptom: Pain, hyperaesthesia, paraesthesia ([2]; 26 weeks): 38.6%
- Patients with symptom: Pain ([2]; 52 weeks): 29.5%
- Patients with symptom: Pain, hyperaesthesia, paraesthesia ([2]; 52 weeks): 47.5%
- Prevention of symptoms typical of diabetic painful peripheral neuropathy (pain, hyperaesthesia, paraesthesia) ([2]; patients without such symptoms at entry, only in type 2 diabetes and at the higher dose): capable not only of curing but also of preventing the symptoms
- Ability to prevent the onset of symptoms associated with diabetic painful peripheral neuropathy ([2]; summary of Tables 1-3, 3 grams/day): statistically significant ability to prevent the onset of symptoms
- Curative effect on symptoms of diabetic peripheral neuropathy already present at the start of the trial ([2]; treatment for 26 or 52 weeks, effect better only in patients with type 2 diabetes): capable of curing the symptoms of diabetic peripheral neuropathy
- Nerve conduction velocity ([3]; diabetic patients suffering from neuropathy, Drugs 1997 September: 54 (3) 414-421): improves nerve conduction velocity
- Nerve conduction velocity ([3]; diabetic patients suffering from polyneuropathy, Journal of the Neurological Sciences, 1997, Suppl. to Vol 150): improves nerve conduction velocity
- Relief of pain symptoms and regeneration of nerve fibres ([3]; patients suffering from stabilised diabetic neuropathy, Diabetes Care, 2005, 28(1): 89-94): useful for relieving the pain symptoms and for regenerating nerve fibres
